{"source": "patent US10770169B2", "about": "“Method of providing a treatment to a subject based on a dynamic pathway map” (THE REGENTS OF THE UNIVERSITY OF CALIFORNIA, priority 2010, dated 2020)", "key": {"[1]": {"test_system": "panel of 55 breast cancer cell lines", "experiment": "Cell growth inhibition assay (Cell Titer Glo, 72 h, 9 doses; GI50, TGI, LC50)", "type": "cell-based, human", "conditions": "value is the negative log10 of mol/L"}, "[2]": {"test_system": "luminal, basal, claudin-low and ERBB2AMP breast cancer cell lines", "experiment": "Associations of clinically relevant subtypes and response (non-parametric ANOVA or t-test on GI50 ranks)", "type": "cell-based, human", "procedure,_shortened": "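GI50 values were compared between cell-line subtype groups by non-parametric ANOVA or t-test on ranks. P-values from three test sets were combined and FDR-corrected. Significant three-group effects were followed by post-hoc comparison of each group against all others, and FDR p<0.20 counted as significant.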"}}, "note": "Entries after “also recorded” stand apart in the source; their conditions may differ."}
{"molecule": "O=c1[nH]c2ccccc2n1C1CCN(Cc2ccc(-c3nc4cc5[nH]cnc5cc4nc3-c3ccccc3)cc2)CC1", "note": "[Sigma AKT1-2 inhibitor]", "values": [{"measurement": "GI50", "setting": "[1]; AU565 cell line, censored GI50 values", "result": 5.61}, {"measurement": "GI50", "setting": "[1]; BT20 cell line, censored GI50 values", "result": 5.00}, {"measurement": "GI50", "setting": "[1]; BT474 cell line, censored GI50 values", "result": 6.08}, {"measurement": "GI50", "setting": "[1]; BT483 cell line, censored GI50 values", "result": 6.08}, {"measurement": "GI50", "setting": "[1]; CAMA1 cell line, censored GI50 values", "result": 5.59}, {"measurement": "GI50", "setting": "[1]; HCC38 cell line, censored GI50 values", "result": 4.98}, {"measurement": "GI50", "setting": "[1]; HCC70 cell line, censored GI50 values", "result": 5.74}, {"measurement": "GI50", "setting": "[1]; HCC1143 cell line, censored GI50 values", "result": 4.87}, {"measurement": "GI50", "setting": "[1]; HCC1187 cell line, censored GI50 values", "result": 5.47}, {"measurement": "GI50", "setting": "[1]; HCC1419 cell line, censored GI50 values", "result": 6.03}, {"measurement": "GI50", "setting": "[1]; HCC1428 cell line, censored GI50 values", "result": 5.35}, {"measurement": "GI50", "setting": "[1]; HCC1500 cell line, censored GI50 values", "result": 4.89}, {"measurement": "GI50", "setting": "[1]; HCC1806 cell line, censored GI50 values", "result": 5.05}, {"measurement": "GI50", "setting": "[1]; HCC1937 cell line, censored GI50 values", "result": 5.00}, {"measurement": "GI50", "setting": "[1]; HCC1954 cell line, censored GI50 values", "result": 5.08}, {"measurement": "GI50", "setting": "[1]; HCC2185 cell line, censored GI50 values", "result": 5.75}, {"measurement": "GI50", "setting": "[1]; HCC3153 cell line, censored GI50 values", "result": 4.99}, {"measurement": "GI50", "setting": "[1]; LY2 cell line, censored GI50 values", "result": 5.77}, {"measurement": "GI50", "setting": "[1]; MCF7 cell line, censored GI50 values", "result": 5.78}, {"measurement": "GI50", "setting": "[1]; MDAMB134VI cell line, censored GI50 values", "result": 5.02}, {"measurement": "GI50", "setting": "[1]; MDAMB175VII cell line, censored GI50 values", "result": 5.51}, {"measurement": "GI50", "setting": "[1]; MDAMB361 cell line, censored GI50 values", "result": 6.05}, {"measurement": "GI50", "setting": "[1]; MDAMB415 cell line, censored GI50 values", "result": 4.95}, {"measurement": "GI50", "setting": "[1]; MDAMB436 cell line, censored GI50 values", "result": 4.47}, {"measurement": "GI50", "setting": "[1]; MDAMB453 cell line, censored GI50 values", "result": 5.73}, {"measurement": "GI50", "setting": "[1]; MDAMB468 cell line, censored GI50 values", "result": 5.01}, {"measurement": "GI50", "setting": "[1]; SKBR3 cell line, censored GI50 values", "result": 5.68}, {"measurement": "GI50", "setting": "[1]; SUM52PE cell line, censored GI50 values", "result": 5.81}, {"measurement": "GI50", "setting": "[1]; SUM149PT cell line, censored GI50 values", "result": 5.03}, {"measurement": "GI50", "setting": "[1]; SUM159PT cell line, censored GI50 values", "result": 5.17}, {"measurement": "GI50", "setting": "[1]; SUM185PE cell line, censored GI50 values", "result": 5.95}, {"measurement": "GI50", "setting": "[1]; SUM225CWN cell line, censored GI50 values", "result": 6.05}, {"measurement": "GI50", "setting": "[1]; SUM1315MO2 cell line, censored GI50 values", "result": 5.33}, {"measurement": "GI50", "setting": "[1]; T47D cell line, censored GI50 values", "result": 5.78}, {"measurement": "GI50", "setting": "[1]; UACC812 cell line, censored GI50 values", "result": 5.53}, {"measurement": "GI50", "setting": "[1]; ZR75B cell line, censored GI50 values", "result": 5.93}, {"measurement": "GI50", "setting": "[1]; ZR751 cell line, censored GI50 values", "result": 5.94}, {"measurement": "GI50", "setting": "[1]; cell line AU565", "result": 5.61}, {"measurement": "GI50", "setting": "[1]; cell line BT20", "result": 5.00}, {"measurement": "GI50", "setting": "[1]; cell line BT474", "result": 6.08}, {"measurement": "GI50", "setting": "[1]; cell line BT483", "result": 6.08}, {"measurement": "GI50", "setting": "[1]; cell line CAMA1", "result": 5.59}, {"measurement": "GI50", "setting": "[1]; cell line HCC38", "result": 4.98}, {"measurement": "GI50", "setting": "[1]; cell line HCC70", "result": 5.74}, {"measurement": "GI50", "setting": "[1]; cell line HCC1143", "result": 4.87}, {"measurement": "GI50", "setting": "[1]; cell line HCC1187", "result": 5.47}, {"measurement": "GI50", "setting": "[1]; cell line HCC1419", "result": 6.03}, {"measurement": "GI50", "setting": "[1]; cell line HCC1428", "result": 5.35}, {"measurement": "GI50", "setting": "[1]; cell line HCC1500", "result": 4.89}, {"measurement": "GI50", "setting": "[1]; cell line HCC1806", "result": 5.05}, {"measurement": "GI50", "setting": "[1]; cell line HCC1937", "result": 5.00}, {"measurement": "GI50", "setting": "[1]; cell line HCC1954", "result": 5.08}, {"measurement": "GI50", "setting": "[1]; cell line HCC2185", "result": 5.75}, {"measurement": "GI50", "setting": "[1]; cell line HCC3153", "result": 4.99}, {"measurement": "GI50", "setting": "[1]; cell line LY2", "result": 5.77}, {"measurement": "GI50", "setting": "[1]; cell line MCF7", "result": 5.78}, {"measurement": "GI50", "setting": "[1]; cell line MDAMB134V", "result": 5.02}, {"measurement": "GI50", "setting": "[1]; cell line MDAMB175V", "result": 5.51}, {"measurement": "GI50", "setting": "[1]; cell line MDAMB361", "result": 6.05}, {"measurement": "GI50", "setting": "[1]; cell line MDAMB415", "result": 4.95}, {"measurement": "GI50", "setting": "[1]; cell line MDAMB436", "result": 4.47}, {"measurement": "GI50", "setting": "[1]; cell line MDAMB453", "result": 5.73}, {"measurement": "GI50", "setting": "[1]; cell line MDAMB468", "result": 5.01}, {"measurement": "GI50", "setting": "[1]; cell line SKBR3", "result": 5.68}, {"measurement": "GI50", "setting": "[1]; cell line SUM52PE", "result": 5.81}, {"measurement": "GI50", "setting": "[1]; cell line SUM149PT", "result": 5.03}, {"measurement": "GI50", "setting": "[1]; cell line SUM159PT", "result": 5.17}, {"measurement": "GI50", "setting": "[1]; cell line SUM185PE", "result": 5.95}, {"measurement": "GI50", "setting": "[1]; cell line SUM225CWN", "result": 6.05}, {"measurement": "GI50", "setting": "[1]; cell line SUM1315MO", "result": 5.33}, {"measurement": "GI50", "setting": "[1]; cell line T47D", "result": 5.78}, {"measurement": "GI50", "setting": "[1]; cell line UACC812", "result": 5.53}, {"measurement": "GI50", "setting": "[1]; cell line ZR75B", "result": 5.93}, {"measurement": "GI50", "setting": "[1]; cell line ZR751", "result": 5.94}, {"measurement": "subtype-specific response (sensitivity by transcriptional subtype)", "setting": "[2]; GI50 across subtypes", "result": "highest in luminal and ERBB2^AMP and lower in basal and claudin-low breast cancer cell lines; also recorded: Luminal and ERBB2AMP cell lines preferentially respond"}, {"measurement": "Subtype specificity", "setting": "[2]; Table 6, most sensitive subtype, FDR p<0.20", "result": "Luminal/ERBB2AMP"}]}
